# Source: patent US20140336267A1, “UTILIZATION OF THE FUNCTION OF RARE SUGAR AS PROMOTER FOR THE MIGRATION OF GLUCOKINASE FROM NUCLEUS TO CYTOPLASM” (NATIONAL UNIVERSITY CORPORATION KAGAWA UNIVERSITY, priority 2006, published 2014)
# How the values were obtained:
# hepatocytes [1] = experiment: Lactic acid generation in hepatocytes; assay type: cell-based, rat; conditions: MEM culture medium containing 5 mM or 25 mM D-glucose
# Experimental: […] As a control, DMSO was added.
# (§1) Cultured hepatocytes were incubated in an MEM culture medium containing 5 mM or 25 mM D-glucose with an action of promoting glucokinase transfer from nucleus to cytoplasm. Glucokinase transfer from nucleus to cytoplasm, glycogen synthesis and lactic acid generation were increased. Via glucose, glucokinase transfer from nucleus to cytoplasm occurs, which raises cytoplasmic glucokinase activity to possibly promote the sugar metabolism in liver. […] (FIGS. 4, 6, 7 and 8)
# glucokinase [2] = biological target: T1, glucokinase (Rattus norvegicus, UniProt P17712); experiment: Glucokinase distribution in primary hepatocytes with D-glucose and D-fructose (fluorescence antibody method); assay type: cell-based
# T1 construct: stained by a fluorescence antibody method using an anti-glucokinase antibody; endogenous in cells; host or cells: primary culture of hepatocytes from male Wistar rats
# T1 sequence (P17712 1-465 isoform P17712-3): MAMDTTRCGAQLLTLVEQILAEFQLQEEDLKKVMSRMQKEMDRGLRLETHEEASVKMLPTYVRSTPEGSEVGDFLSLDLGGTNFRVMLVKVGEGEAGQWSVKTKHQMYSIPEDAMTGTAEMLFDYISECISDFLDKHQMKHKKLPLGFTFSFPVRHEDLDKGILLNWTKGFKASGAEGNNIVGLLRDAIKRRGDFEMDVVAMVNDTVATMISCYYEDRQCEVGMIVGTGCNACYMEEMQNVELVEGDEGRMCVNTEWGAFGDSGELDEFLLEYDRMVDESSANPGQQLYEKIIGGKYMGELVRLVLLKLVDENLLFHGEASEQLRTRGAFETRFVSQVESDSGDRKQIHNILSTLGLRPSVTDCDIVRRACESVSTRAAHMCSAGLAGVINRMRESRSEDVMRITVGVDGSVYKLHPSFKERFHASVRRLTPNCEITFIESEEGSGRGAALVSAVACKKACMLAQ
# Experimental: In the presence of 5 mM D-glucose, glucokinase mainly existed in the cell nucleus.
# as §1
# hepatocytes [3] = experiment: Glycogen synthesis in cultured hepatocytes; assay type: cell-based, rat; conditions: MEM culture medium containing 5 mM or 25 mM D-glucose
# Experimental: as §1
# glucokinase [4] = biological target: T1, glucokinase; experiment: Hepatic glucokinase transfer from nucleus to cytoplasm after oral sugar given with D-glucose, Wistar rats (Example 3); assay type: in vivo; conditions: Wistar rats starved overnight; 2 g/kg D-glucose oral alone; 30 minutes later
# Experimental: Male Wistar rats starved overnight were given 2 g/kg D-glucose orally. Simultaneously, 0.2 g/kg D-psicose, D-fructose or a mixture of D-psicose and D-fructose at 1:3 were given orally. Thirty minutes later, the rats were perfused and fixed with 4% para-formaldehyde under anesthesia, from which liver was immediately resected to prepare frozen sections. The distribution of glucokinase in the nucleus and the cytoplasm was analyzed with the fluorescence antibody method using an anti-glucokinase antibody. Simultaneously, blood was drawn out from the tail vein and the portal vein, to assay blood glucose levels.
# glucokinase [5] = biological target: T1, glucokinase; experiment: Hepatic glucokinase transfer from nucleus to cytoplasm in Goto-Kakizaki rats (type 2 diabetes model); assay type: in vivo
# Experimental: The action of suppressing blood glucose increase with D-fructose at a low concentration was examined. To Goto-Kakizaki rats as a model animal of type 2 diabetes mellitus, D-glucose to 2 g/[…] or D-glucose to 2 g/l kg body weight+D-fructose to 0.2 g/1 kg body weight was administered orally, to examine the modification of glucokinase transfer from the nucleus to the cytoplasm in hepatocytes and the change of the blood glucose levels in the portal vein and the tail vein.
# 2 g/kg D-glucose is orally given to male Goto-Kakizaki rats starved overnight. Simultaneously, 0.2 g/kg D-psicose was orally given. Thirty minutes later and 60 minutes later, the rats were perfused and fixed with 4% para-formaldehyde under anesthesia, from which liver was immediately resected to prepare frozen sections. The distribution of hepatic glucokinase in nucleus and cytoplasm was analyzed with the fluorescence antibody method using an anti-glucokinase antibody. Simultaneously, blood was drawn out from the tail vein and the portal vein, to assay blood glucose level and insulin concentration. Herein, liver is divided in the portal vein region and the central vein region of liver. It has been known that the activity of glucokinase in the central vein region is higher by 1.3 fold to 1.5 fold than the activity thereof in the portal vein region. Therefore, the glucokinase distributions in the nucleus and the cytoplasm in the central vein region and the portal vein region were analyzed.
# [6] = 2 g/kg D-glucose oral alone, 30 and 60 minutes, vs starved
smiles,measurement,setting,value
O=C[C@H](O)[C@@H](O)[C@H](O)[C@H](O)CO [D-glucose],lactic acid generation,hepatocytes [1],increased
same,cytoplasmic glucokinase,"glucokinase [2]; 25 mM D-glucose, 37° C. for 30 minutes, vs 5 mM D-glucose",the cytoplasmic glucokinase was increased
same,glucokinase transfer from nucleus to cytoplasm,glucokinase [2]; MEM culture medium containing 5 mM or 25 mM D-glucose,increased
same,glycogen synthesis,hepatocytes [3],increased
same,glucokinase transfer from the nucleus to the cytoplasm in hepatocytes,glucokinase [4],glucokinase transfer from the nucleus to the cytoplasm occurred slightly
same,glucokinase fluorescence in the cytoplasm (liver),glucokinase [5]; [6],fluorescence in the cytoplasm was inversely increased
same,glucokinase fluorescence in the nucleus (liver),glucokinase [5]; [6],Fluorescence in the nucleus was reduced
same,glucokinase transfer from the nucleus to the cytoplasm in hepatocytes,glucokinase [5]; oral D-glucose alone,glucokinase transferred from the nucleus to the cytoplasm
same,cytoplasmic glucokinase level (fluorescence intensity analysis),"glucokinase [5]; oral D-glucose vs 24-hour fasting, central vein and portal vein regions",significantly increased
